Data set [1] has as its system A. castellanii trophozoites. Nature of the data set: Cytotoxicity assay on trophozoites (resazurin / alamarBlue). The data set is classed as cell-based, Acanthamoeba castellanii ATCC 50370. The following applies: for IC50: Acanthamoeba castellanii. As to the method:
Acanthamoeba castellanii ATCC 50370 trophozoites and cysts were cultured in Peptone Glucose (PG) medium and encystment medium (Chagla A H, Griffiths A J (1974) Microbiology: 85(1): 139-145) respectively at 25° C. Cysts were prepared by incubating trophozoites for 8 days in encystment medium and integrity validated with calcofluor (0.25 μg/ml) assay (Gatti S et al (2010) J. Med. Microbiol.; 59: 1324-1330) or sodium dodecyl sulfate (SDS, 0.5% w/v) disintegration assay (Dudley R et al (2005) Acta Trop.; 9: 100-8) and microscopic observation.
The compounds used in this study all contained alkyl-carbon chains: three APCs [dodecyl-PC (APC12), tetradecyl-PC. (APC14) and hexadecyl-PC (APC16)] (Anatrace) and four QACs [docdecyl-TMAB (QAC12), tetradecyl-TMAB (QAC14), hexadecyl-TMAB (QAC16) and octadecyl-TMAB (QAC18)](Sigma). All were prepared to a stock concentration of 1 mg/ml and diluted as required by the experimental protocol in the cytotoxicity assays. […]
[…] Resazurin (7-Hydroxy-31-phenoxazin-3-one 10-oxide; 5 mg/ml; McBride J et al (2005) J. Clin. Microbiol.; 43: 629-634) and trypan blue (0.4 μg/ml; Mafra C S P et al (2013) Investig. Ophthalmol. Vis. Si.; 54: 6363-6372) were then added to trophozoites and cysts respectively after being exposed to the compounds and the cell viability estimated microscopically and from changes in absorbance (at 595 nm and 570 nm) respectively.
Efficacy was expressed as a percentage of untreated controls for each drug concentration used and the data used to calculate the IC50. Cell density was estimated using the modified Neubaur hemocytometer and expressed as cells/ml.
On the technique in general: Resazurin is reduced to fluorescent resorufin, in cell work by metabolically active cells.

For data set [2] the following is noted: APCs; cited from earlier work.
The test system of data set [3] is A. castellanii trophozoites. Nature of the data set: Drug wash-out / alamarBlue-reversion assay, trophozoites. The data set is classed as cell-based, Acanthamoeba castellanii ATCC 50370. The following applies: 12.5 μg/ml to 100 μg/ml after 96 h.
For data set [4], the system named is A. castellanii trophozoites. Description: Morphometric analysis of trophozoites. The data set is classed as cell-based, Acanthamoeba castellanii ATCC 50370. Here is the method: Acanthamoeba trophozoites ([…]) incubated without (FIG. 2A), with QAC18 at 37.5 μg/ml for 1 h at 25° C. (FIG. 2B), and 0.5% SDS for 30 min (FIG. 2C). QAC18 reduced trophozoites sizes from 29.02±0.23 (FIG. 2A) to 7.87 f 0.93 (FIG. 2B) which disintegrated after 30 min treatment with SDS (FIG. 2C).
A. castellanii trophozoites incubated with and without QAC for a duration determined by experimental protocol were examined microscopically and their sizes measured using the Open Laboratory (Improvision) calibration graticule. The mean body sizes were determined.

Data set [5] has as its system A. castellanii trophozoites. Nature of the data set: Combined assay with fixed QAC12 (alamarBlue). Format: cell-based, Acanthamoeba castellanii ATCC 50370. The following applies: for IC50: Acanthamoeba castellanii, 96 h, 96 h at 25° C. Here is the method:
Acanthamoeba trophozoites (10^5 cells/ml. n=5/treatment) treated with 100 μg/ml doubly diluted to 0.06 μg/ml of QAC18 (a,b) or APC16 (c,d) for 96 h at 25° C. […] Similarly. APC16 alone at the same concentration (closed circle, FIG. 6C, FIG. 6D) in combination with QAC12 at 18.75 μg/ml (open squares, d) QAC12 at […] (open squares, FIG. 6C). Data are mean absorbance at 595 nm t SD; n=4 independent experiments performed in triplicates. IC50s were not statistically significant between QAC12 at both concentrations and QAC16 (p>0.05, FIG. 6A, FIG. 6B) but significant with APC16 (p<0.05, FIG. 6C, FIG. 6D).
For the combined assay, similar concentrations of QAC18 and APC16 were prepared and 18.75 μg/ml and 37.5 μg/ml of QAC12 added (to a final volume of 100 μl) were added to 10^5 cells/mi in a 96-well plate and later incubated at 25° C. for a duration determined by the experimental protocol. Resazurin (7-Hydroxy-31-phenoxazin-3-one 10-oxide; 5 mg/ml; McBride J et al (2005) J. Clin. Microbiol.; 43: 629-634) and trypan blue (0.4 μg/ml; Mafra C S P et al (2013) Investig. Ophthalmol. Vis. Si.; 54: 6363-6372) were then added to trophozoites and cysts respectively after being exposed to the compounds and the cell viability estimated microscopically and from changes in absorbance (at 595 nm and 570 nm) respectively.

The mark [6] stands for this setting: Table 4, read-out: IC50 against Acanthamoeba spp.
Setting [7] is: Table 5, 72 h and 96 h at 26° C., alamar blue, read-out: IC50 Acanthamoeba trophozoites.

Broadly, the IC50 is the point on the concentration scale where inhibition reaches its midpoint.

In brackets after ≈: the same amount, converted by molar mass. Several values for one entry are separate records, joined by “and”; a condition that tells them apart may be missing. Equal values may be shown once. Marks after values point to notes of the source that are not given here.

For “10-Undecylenyl-1-phosphocholine [APC11UPC]”, the “Increase in activity relative to saturated counterpart APC12” value in data set [1] amounted to 3 fold. Also, in data set [1] (Table 4), the “IC50 against Acanthamoeba spp” value was found to be 3.1 ± 0.4 µg/mL.

Take `CCCCCCCCOP(=O)([O-])OCC[N+](C)(C)C` [APC8, Octylphosphocholine]: the IC50 in data set [1] (setting [6]) was determined as 46.4 ± 2.3 µg/mL (≈ 157 µM).

With `CCCCCCCCCCOP(=O)([O-])OCC[N+](C)(C)C` [APC10, Decylphosphocholine], the IC50 in data set [1] (setting [6]) is 58 ± 0.9 µg/mL (≈ 179 µM).

`CC(C)CCC(CCC(C)C)OP(=O)([O-])OCC[N+](C)(C)C` [APC11PC, 2,8-Dimethyl-5-Nonylphosphocholine]: the IC50 in data set [1] (setting [6]) is greater than 37.5 µg/mL.

With `CCCCCCCCCCCCOP(=O)([O-])OCC[N+](C)(C)C` [APC12, Dodecylphosphocholine], in data set [1] (setting [7]), the IC50 is 22.9 µg/mL and 65.2 µM. The CMC value in data set [2] is reported as 1000.00* μM.

Turning to `CCCCCCCCCCCCCCOP(=O)([O-])OCC[N+](C)(C)C` [APC14, Tetradecylphosphocholine], the IC50 in data set [1] (setting [6]) is 8.9 ± 0.2 µg/mL (≈ 23.5 µM); in data set [1] (setting [7]) it was 8.9 µg/mL and 23.4 µM. In addition, the CMC value in data set [2] was 120.00* μM.

As to `CCCCCCCCCCCCCCCCOP(=O)([O-])OCC[N+](C)(C)C` [APC16, Hexadecylphosphocholine], the IC50 in data set [1] (setting [6]) is 7.9 ± 0.3 µg/mL (≈ 19.4 µM); in data set [1] (setting [7]), 7.9 µg/mL and 19.4 µM; in data set [5] (QAC12 at 18.75 μg/ml, read-out: Estimated IC50 of APC16 with QAC12), 3.4 µg/mL; in data set [5] (QAC12 at 37.5 μg/ml, read-out: Estimated IC50 of APC16 with QAC12), 2.5 µg/mL; in data set [5] (without QAC12, read-out: IC50 of APC16 only control) it was 7.6 µg/mL. The “Effect after APC16 wash-out and incubation in PG medium” value in data set [3] is listed as “amoebostatic”. Also, the “Reduction in trophozoite size relative to untreated” value in data set [4] is recorded as 4 fold. The “Effect after drug wash-out (inability to oxidise resazurin)” value in data set [5] (APC16 at 3.12, 4.68, 6.25 and 9.36 μg/ml combined with QAC12, not alone) is on record as “cytotoxic”. For the same compound, the CMC value in data set [2] is 13.00* μM.

With `CCCCCCCCCCCCCCCCCCOP(=O)([O-])OCC[N+](C)(C)C` [APC18, Octadecylphosphocholine], the IC50 in data set [1] (setting [6]) was 3 ± 0.3 µg/mL (≈ 6.89 µM).

In the case of `CCCCCCCCCCCC[N+](C)(C)CCCCCCCCCCCC.[Br-]` [DAB, Didodecyldimethyl ammonium bromide], the 50% inhibitory concentration (IC50) in data set [1] (setting [6]) came out at 27 ± 2.2 µg/mL.

The values above are taken from patent US20230102836A1, “Amoebicidal Compositions for Contact Lens Solutions” (University of the West of Scotland, priority 2019, published 2023).
